Columns and labels:
[1] = biological target: T1, PDE7A1 (Homo sapiens, UniProt Q13946); assay: Determination of PDE7 inhibition (SPA, [3H]cAMP); format: biochemical; conditions: read-out: % inhibition of PDE7A at 10 μM; hydrobromides; at 10 μM
T1 construct: purchased Calbiochem 524751
Procedure: PDE-7 inhibition was performed with a commercial kit for the determination of phosphodiesterase activity (GE Healthcare Life Sciences, cat#TRKQ7090).
The compounds to be evaluated were incubated (in concentrations between 0.1 nM and 100 μM) in presence of 0.02 U/well of PDE7A1 (Calbiochem cat#524751) and 0.05 μCi of [^3H] cAMP, for 20 min at 30° C. in the assay buffer of kit (total volume=100 μl).
After this time, 50 μl of a suspension of 20 mg/ml microspheres of SPA of Ytrium silicate were added and was maintained under stirring at room temperature for 60 min. Finally, the plate was settled for 20 min and radioactivity was detected in a Microbeta Trilux reader.
In every assay there were included two points without PDE7A1 (blank) and two points with PDE7A1 without inhibitors (control).
Data Analysis: All the compounds were evaluated firstly at the concentration of 10 μM and the percentage of PDE7A1 inhibition was calculated, according to the following formula (cpm=counts per minute): % Inhibition=((cpm control−cpm sample)×100)/(cpm control−cpm blank assay).
For those compounds with % inhibition values above 45% it was calculated its inhibitory potency (IC50) building the dose-response curve.
The data were adjusted with the software Prism v 2.1 (GraphPad Software) using the non lineal fitting.

[2] = in vitro; conditions: PAMPA
Procedure: Ten commercial reference drugs, phosphate buffer saline solution at pH 7.4 (PBS), DMSO and dodecane were purchased from Sigma, Acros organics, Aldrich and Fluka. […] Filter PDVF membrane units (diameter 30 mm, pore size 0.45 μm) from Symta were used to filtered the samples. A 96-well plate UV reader (Thermoscientific, Multiskan spectrum) was used for the UV measurements. […] These solutions were filtered. The acceptor 96-well microplate was filled with 180 μL of PBS:DMSO (95:5). The donor 96-well plate was coated with 4 μL of porcine brain lipid in dodecane (20 mg mL^−1) and after 5 minutes, 180 μL of each compound solution was added. 1-2 mg of every compound to be determined their ability to pass the BBB were dissolved in 250 μL of DMSO and 4750 μL of PBS pH 7.4 buffer, filtered and then added to the donor 96-well plate. Then the donor plate was carefully put on the acceptor plate to form a “sandwich”, which was left undisturbed for 4 h at 25° C.
During this time the compounds diffused from the donor plate through the brain lipid membrane into the acceptor plate. After incubation, the donor plate was removed. The concentration of compounds and commercial drugs in the acceptor and the donor wells was determined by UV plate reader. Every sample was analyzed from three to five wavelengths, in 3 wells and in at least three independent runs. […] 11 quality control compounds (previously mentioned) of known BBB permeability were included in each experiment to validate the analysis set.

T1 sequence (Q13946 whole entry): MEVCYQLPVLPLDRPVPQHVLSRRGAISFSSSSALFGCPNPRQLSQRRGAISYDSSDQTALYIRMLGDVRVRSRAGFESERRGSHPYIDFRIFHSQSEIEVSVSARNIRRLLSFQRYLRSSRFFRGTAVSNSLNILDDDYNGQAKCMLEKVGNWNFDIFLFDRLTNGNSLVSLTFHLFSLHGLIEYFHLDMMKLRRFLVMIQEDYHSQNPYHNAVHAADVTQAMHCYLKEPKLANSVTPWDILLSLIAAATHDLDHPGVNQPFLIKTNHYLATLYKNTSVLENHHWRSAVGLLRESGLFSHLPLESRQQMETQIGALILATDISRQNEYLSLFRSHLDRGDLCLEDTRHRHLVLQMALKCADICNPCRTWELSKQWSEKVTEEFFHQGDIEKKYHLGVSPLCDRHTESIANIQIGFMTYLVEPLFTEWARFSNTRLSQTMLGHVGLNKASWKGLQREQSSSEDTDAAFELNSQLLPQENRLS

inhibition at 10 µM [1]: 54%
Prediction (predictive penetration in the CNS) [2]: CNS+
Papp at 4 h ([2]; pH 7.4): 5.3 ± 0.9 ×10⁻⁶ cm/s
SMILES: Br.Br.Cc1nc(=NCc2cccnc2)sn1-c1ccccc1 [VP-2.63, 3-Methyl-2-phenyl-5-(3-pyridylmethylimino)-2,5-dihydro-1,2,4-thiadiazole dihydrobromide]

Source: patent publication US9604947B2, “Substituted 5-imino-1,2,4-thiadiazoles that can be used to treat neurodegenerative diseases” (CONSEJO SUPERIOR DE INVESTIGACIONES CIENTIFICAS (CSIC), priority 2009, dated 2017)
